The data set can be described thus: recombinant barcode read abundance after kanamycin selection (control-corrected) (log10(CPM+1)); higher = more efficient recombination; sequences stand for … in AGTGCAGAGAAAATCGGCCAGTTTTCTCTGCCTGCAGTCCGCATGCCGT…AGATTTATGCAGCGGACTGCCTTTCTCCCAAAGTGATAAACCGGACAGTATCATGGACCGGTTTTCCCGGTAATCCGTATTTGCAAGGTTGGTTTCACT; site = the 11-nt target. The essentials:
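Oligos holding a promoter, target, barcode and the J23119-driven first 104 bases of the bridge RNA were Gibson-cloned into a vector that supplied the other 73 bp plus a T7-inducible recombinase. This library was co-electroporated with a donor plasmid into E. coli. Two replicates went on chloramphenicol/ampicillin LB agar (control) and two on chloramphenicol/ampicillin/kanamycin with 0.1 mM IPTG. Recombination efficiency is read from averaged, control-corrected barcode counts per million at recombinant junctions, reported as log10(CPM+1).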
“AGCCCTTCTTGGGTTCTAACCTGTTGCTT (site AGCCCTTCTAA)”: the “recombinant barcode read abundance (log10)” value is 0.083. For “AGCCCTTCTTGGGTTCTAACCTGTTGCTT (site GTAGGGACTCG)”, the “recombinant barcode read abundance (log10)” value was 0.0698. As for “AGCCTCCCTTGGGTTCTAACCTGTTGCCA (site AGCCTCCCTTG)”, the “recombinant barcode read abundance (log10)” value came out at 0.663. Consider “AGCCTCCCTTGGGTTCTAACCTGTTGCCA (site CAGGGGTCTAT)”, for which the “recombinant barcode read abundance (log10)” value amounted to 0.121. With “AGCGAGGCTTGGGTTCTAACCTGTTGCCT (site AGCGAAGCTAG)”, the “recombinant barcode read abundance (log10)” value is 0.0233.

For the sequence “AGCGAGGCTTGGGTTCTAACCTGTTGCCT (site AGCGAGGCTAG)”, the “recombinant barcode read abundance (log10)” value was found to be 0.188. With “AGCGCGCCTTGGGTTCTAACCTGTTGCTG (site AGCGCGCCTCA)”, the “recombinant barcode read abundance (log10)” value was 0.224.

With “AGCGCGCCTTGGGTTCTAACCTGTTGCTG (site GAGTACACTGC)”, the “recombinant barcode read abundance (log10)” value was determined as 0.00819.

Turning to “AGCGCTCCTTGGGTTCTAACCTGTTGCCT (site AACGCTCCTAG)”, the “recombinant barcode read abundance (log10)” value is 0.0472. For the sequence “AGCGCTCCTTGGGTTCTAACCTGTTGCCT (site ACCGCTCCTAG)”, the “recombinant barcode read abundance (log10)” value worked out at 0.305.

“AGCGCTCCTTGGGTTCTAACCTGTTGCCT (site AGCGCTCCTAG)”: the “recombinant barcode read abundance (log10)” value was determined as 0.68. Turning to “AGCGCTCCTTGGGTTCTAACCTGTTGCCT (site ATCGCTCCTAG)”, the “recombinant barcode read abundance (log10)” value amounted to 0. For the sequence “AGCGGCCCTTGGGTTCTAACCTGTTGCCT (site AGCGGACCTAG)”, the “recombinant barcode read abundance (log10)” value was determined as 0.466.

As to “AGCGGCCCTTGGGTTCTAACCTGTTGCCT (site AGCGGCCCTAG)”, the “recombinant barcode read abundance (log10)” value came to 1.26. For “AGCGGCCCTTGGGTTCTAACCTGTTGCCT (site AGCGGGCCTAG)”, the “recombinant barcode read abundance (log10)” value amounted to 0.0662. For “AGCGGCCCTTGGGTTCTAACCTGTTGCCT (site AGCGGTCCTAG)” the value was 0.0761; for “AGCTAATCTTGGGTTCTAACCTGTTGCTT (site AGCTAATCTAA)”, 0.0369; for “AGCTAATCTTGGGTTCTAACCTGTTGCTT (site GAGCTGCCTTG)”, 0.0324. As to “AGCTATGCTTGGGTTCTAACCTGTTGCCT (site AGCTATGCTAG)”, the “recombinant barcode read abundance (log10)” value worked out at 0.317. For the sequence “AGCTATGCTTGGGTTCTAACCTGTTGCCT (site GAAATACCTCC)”, the “recombinant barcode read abundance (log10)” value turned out to be 0.138. On to “AGCTGTCCTTGGGTTCTAACCTGTTGCAG (site AGCTGTCCTCT)”, for which the “recombinant barcode read abundance (log10)” value came out at 0.273. Take “AGCTGTCCTTGGGTTCTAACCTGTTGCAG (site TAGGCGGCTAC)”: the “recombinant barcode read abundance (log10)” value came out at 0.0556. As to “AGCTTAGCTTGGGTTCTAACCTGTTGCCA (site AGCTTAGCTAG)”, the “recombinant barcode read abundance (log10)” value was determined as 0.484. For “AGCTTAGCTTGGGTTCTAACCTGTTGCCA (site AGCTTAGCTCG)” the value was 0.365; for “AGCTTAGCTTGGGTTCTAACCTGTTGCCA (site AGCTTAGCTGG)”, 0.463; for “AGCTTAGCTTGGGTTCTAACCTGTTGCCA (site AGCTTAGCTTG)”, 0.387. For the sequence “AGGAACACTTGGGTTCTAACCTGTTGCCT (site AGAAACACTAG)”, the “recombinant barcode read abundance (log10)” value came out at 1.36. Consider “AGGAACACTTGGGTTCTAACCTGTTGCCT (site AGGAACACTAG)”, for which the “recombinant barcode read abundance (log10)” value is 1.94. As to “AGGAACACTTGGGTTCTAACCTGTTGCTG (site AGGAACACTAA)”, the “recombinant barcode read abundance (log10)” value came to 0.803. Take “AGGAACACTTGGGTTCTAACCTGTTGCTG (site AGGAACACTCA)”: the “recombinant barcode read abundance (log10)” value amounted to 2.65. Take “AGGAACTCTTGGGTTCTAACCTGTTGCAT (site AGGAACTCTAT)”: the “recombinant barcode read abundance (log10)” value is 2.44. As to “AGGAACTCTTGGGTTCTAACCTGTTGCAT (site GGGAACCCTAT)”, the “recombinant barcode read abundance (log10)” value came out at 0.0839.

The values above are taken from the supplement of paper PMC11208160.
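Further: IS621 recombinase and bridge RNA in Escherichia coli cells.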
